Patent US12116636B2, “Methods for evaluating tumor cell spheroids using 3D microfluidic cell culture device” (Dana-Farber Cancer Institute, Inc., priority 2017, dated 2024)

Tests used:
[1] = tested on: human CD4+ and CD8+ T cells; experiment: IFNγ in supernatant of anti-CD3/anti-CD28 stimulated T cells; assay type: cell-based; conditions: dose-titration, 96 hours
Protocol: Freshly isolated human CD4+ and CD8+ T cells were obtained from AllCells (Alameda, CA, USA). Cells were spun down and resuspended in serum free Xvivol5 media (Lonza Walkersville, Inc., Chicago, IL, USA) supplemented with 5 ng/mL […] and incubated overnight at 37° C. Cells were plated on anti-CD3 coated plates (5 μg/mL OKT3, eBioscience™, Dallas, TX, USA, overnight) with 2 μg/mL anti-CD28 (eBioscience™, Dallas, TX, USA). Cells are treated in replicate plates with a dose-titration of Compound 1 for 24 hours for IL-2 and 96 hours for IFNT. IL-2 and IFNγ in the supernatant were measured using single- or multi-plex immunoassay (Mesoscale Discovery, Rockville, MD, USA). Jurkat T cell leukemia cells (clone E61 obtained from ATCC) plated on anti-CD3 coated plates were treated with a dose titration of Compound 1 for 24 hours. IL-2 in the supernatant was measured as described above.

[2] = tested on: MC38 MDOTS; experiment: Live/dead (AO/PI) staining of MDOTS in 3D microfluidic culture; assay type: cell-based, murine; conditions: Cmpd1 1 μM + αPD-1, 5 days; not significant vs single-agent PD-1
Protocol: Fresh tumor specimens (murine and human patients) were received in media (DMEM) on ice and minced in a 10 cm dish (on ice) using sterile forceps and scalpel. Minced tumor was resuspended in DMEM (4.5 mM glucose, […] sodium pyruvate, 1:100 penicillin-streptomycin) (Coming CellGro, Manassas, VA)+10% FBS (Gemini Bio-Products, West Sacramento, CA), 100 U/mL collagenase type IV (Life Technologies, Carlsbad, CA), and 15 mM HEPES (Life Technologies, Carlsbad, CA), except for CT26 tumors that were prepared in RPMI. Samples were pelleted and resuspended in 10-20 mL media. Red blood cells were removed from visibly bloody samples using RBC Lysis Buffer (Boston Bio-Products, Ashland, MA). […]
Dual labeling was performed by loading microfluidic device with Nexcelom ViaStain™ (fluorescent cell viability dye) AO/PI Staining Solution (Nexcelom, CS2-0106). Following incubation with the dyes (20 minutes at room temperature in the dark), images were captured on a Nikon Eclipse 80i fluorescence microscope equipped with Z-stack (Prior) and CoolSNAP CCD camera (Roper Scientific). […] Live and dead cell quantitation was performed by measuring total cell area of each dye. […]

[3] = tested on: CT26 and EMT6 cells; experiment: Re-implantation of CT26 and EMT6 cells after combination therapy (immunologic memory); assay type: in vivo, mice; conditions: previously treated with anti-PD-L1 + Compound 1
Protocol: Combination studies were performed by vivoPharm (Hummelstown, PA, USA). All procedures used in the performance of these studies were carried out in accordance with vivoPharm's Standard Operating Procedures, with particular reference to US_SOPvP_EF0314 “General Procedures for Efficacy Studies.” CT26 colon carcinoma cells (1×10^6 cells/mouse in 100 μL, passage 2-3) were re-suspended in serum-free DMEM and implanted in the upper right flank of 11-12 week old female Balb/c mice (Charles River Laboratories). Mice were randomized into four groups of 10 using a matched pair distribution method based on tumor size for CT26. Treatment was initiated 12 days post-inoculation with mean tumor volume at start of dosing of 125.85 mm^3. Vehicle or Compound 1 (40 mg/kg) was administered by oral gavage daily for 26 days and isotype control or a reverse chimera anti-PD-L1 cloned from literature reports (e.g., Deng, R. et al. MAbs (2016), the content of which is incorporated herein by reference in entirety) and placed into a mouse IgG1 framework (10 mg/kg) was administered every 5 days for a total of six doses. Investigators were not blinded to treatment groups. […] Mice were scarified on Day 13 and lung metastases were quantified (small≤1 mm, medium>1 mm and ≤3 mm, large>3 mm). No large lung metastases were detected.

Compound: N#Cc1cc(-c2ncnc(Nc3ccc(N4CCN(C5COC5)CC4)cc3)n2)ccc1OC1CCOCC1 [Compound 1, 5-(4-((4-(4-(oxetan-3-yl)piperazin-1-yl)phenyl)amino)-1,3,5-triazin-2-yl)-2-((tetrahydro-2H-pyran-4-yl)oxy)benzonitrile]
- secretion of IFN-7 from purified CD4+ and CD8+ T cells [1]: enhanced secretion
- ex vivo killing of MC38 MDOTS, combination treatment [2]: enhanced
- growth of reimplanted CT26 in mice with exceptional responses to combination therapy [3]: no growth
